≈ marks a conversion by molar mass, not a printed value. Read-outs that look alike come from different tables or passages of the source.
How the values were obtained:
[1] = tested on: Candida auris; experiment: MIC determination against clinical isolates of Candida auris (CLSI M27, 4th edition); type: cell-based; conditions: Candidozyma auris, read-out: MIC values
Excerpt: (§1) MIC: Minimum Inhibitory Concentration (MIC) is defined as the lowest concentration of an antimicrobial ingredient that is bacteriostatic.
(§2) Testing has been performed in triplicates for each isolate.

[2] = tested on: Mucor circinelloides; experiment: MIC determination against ATCC and clinical isolates of the order Mucorales (CLSI M27, 4th edition); type: cell-based
Excerpt: as §1, §2

[3] = tested on: Rhizopus microsporus; experiment: MIC determination against clinical isolates of the order Mucorales (CLSI M27, 4th edition); type: cell-based
Excerpt: as §1, §2

[4] = tested on: Rhizopus oryzae; experiment: as above; type: cell-based; conditions: Rhizopus arrhizus, strain 2086, clinical strain
Excerpt: as §1, §2

[5] = tested on: Candida albicans; conditions: cited from earlier work
[6] = tested on: Aspergillus spp.; conditions: 13 strains of Aspergillus spp.; cited from earlier work
[7] = tested on: Penicillium spp.; conditions: 5 strains of Penicillium spp.; cited from earlier work
[8] = tested on: Sporothrix schenkii; conditions: 1 strain of Sporothrix schenkii; cited from earlier work
[9] = tested on: Mucor sp.; conditions: 4 strains of Mucor sp.; cited from earlier work
[10] = tested on: Paecilomyces variotii; conditions: 2 strains Paecilomyces variotii; cited from earlier work
[11] = tested on: Candida sp.; conditions: cited from earlier work
[12] = rats, cited from earlier work
[13] = tested on: rat erythrocytes; conditions: cited from earlier work
[14] = single intravenous administration, amcipatricin diascorbate 1.25 mg/kg, amphotericin B 1 mg/kg

## CNc1ccc(C(=O)CC(O)CC[C@H](C)C2OC(=O)C[C@H](O)CC(=O)C[C@H](O)C[C@H](O)C[C@H](O)C[C@H](O)C[C@]3(O)C[C@H](O)[C@@H](C(=O)NCCN(C)C)C(C[C@@H](OC4OC(C)C(O)C(NC(=O)CN(C)C)C4O)/C=C/C=C/C=C/C=C\C=C/C=C/C=C/[C@@H]2C)O3)cc1 (stereo partly drawn) [Amcipatricin diascorbate, Candicidin D, 18-decarboxy-40-demethyl-3,7-dideoxo-N3′-[(dimethylamino)acetyl]-18-[[[2-(dimethylamino)ethyl]-amino]carbonyl]-3,7-dihydroxy-N47-methyl-5-oxo-, cyclic 15,19-hemiacetal, compound with L-ascorbic acid (1:2)]
[1]; strain I.2 (No 2), clade I/India
  MIC: 2 µg/mL (≈ 1.56 µM)
[1]; strain I.3 (No 3), clade I/India
  MIC: 2 µg/mL (≈ 1.56 µM)
[1]; strain I.4 (No 4), clade I/India
  MIC: 2 µg/mL (≈ 1.56 µM)
[1]; strain II.1 (No 5), clade II/Japan
  MIC: 2 µg/mL (≈ 1.56 µM)
[1]; strain II.2 (No 1), clade II/India
  MIC: 2 µg/mL (≈ 1.56 µM)
[1]; strain III.7 (No 12), clade III/Switzerland
  MIC: 1 µg/mL (≈ 0.78 µM)
[1]; strain III.8 (No 13), clade III/Israel
  MIC: 1 µg/mL (≈ 0.78 µM)
[1]; strain III.9 (No 14), clade III/Israel
  MIC: 1 µg/mL (≈ 0.78 µM)
[1]; strain IV.1 (No 15), clade IV/Colombia
  MIC: 2 µg/mL (≈ 1.56 µM)
[1]; strain IV.10 (No 7), clade IV/Israel
  MIC: 2 µg/mL (≈ 1.56 µM)
[1]; strain IV.11 (No 8), clade IV/Israel
  MIC: 1 µg/mL (≈ 0.78 µM)
[1]; strain IV.12 (No 9), clade IV/Israel
  MIC: 1 µg/mL (≈ 0.78 µM)
[1]; strain IV.13 (No 10), clade IV/Israel
  MIC: 2 µg/mL (≈ 1.56 µM)
[1]; strain IV.14 (No 11), clade IV/Israel
  MIC: 2 µg/mL (≈ 1.56 µM)
[1]; strain IV.2 (No 16), clade IV/Colombia
  MIC: 2 µg/mL (≈ 1.56 µM)
[1]; strain IV.3 (No 17), clade IV/Colombia
  MIC: 2 µg/mL (≈ 1.56 µM)
[1]; strain IV.4 (No 18), clade IV/Colombia
  MIC: 2 µg/mL (≈ 1.56 µM)
[1]; strain IV.5 (No 19), clade IV/Colombia
  MIC: 2 µg/mL (≈ 1.56 µM)
[1]; strain IV.6 (No 20), clade IV/Colombia
  MIC: 2 µg/mL (≈ 1.56 µM)
[1]; strain IV.7 (No 21), clade IV/Colombia
  MIC: 2 µg/mL (≈ 1.56 µM)
[1]; strain IV.8 (No 22), clade IV/Colombia
  MIC: 2 µg/mL (≈ 1.56 µM)
[1]; strain IV.9 (No 6), clade IV/Israel
  MIC: 2 µg/mL (≈ 1.56 µM)
[2]; ATCC24905, strain ATCC 24905, ATCC strain
  MIC: 4 µg/mL (≈ 3.12 µM)
[2]; strain 2109, clinical strain
  MIC: 4 µg/mL (≈ 3.12 µM)
[2]; strain 2707, clinical strain
  MIC: 4 µg/mL (≈ 3.12 µM)
[2]; strain 4280, clinical strain
  MIC: 4 µg/mL (≈ 3.12 µM)
[3]; strain 3315, clinical strain
  MIC: 2 µg/mL (≈ 1.56 µM)
[3]; strain 3435, clinical strain
  MIC: 4 µg/mL (≈ 3.12 µM)
[4]
  MIC: 4 µg/mL (≈ 3.12 µM)
[5]
  fungicidal minimum inhibitory concentration against Candida albicans: 0.0075 µg/mL
[6]
  geometric means of the minimum fungicidal concentrations: 12.53 µg/mL
[7]
  geometric means of the minimum fungicidal concentrations: about 12 μg/mL
[8]
  MFC: 19.2 µg/mL (≈ 15 µM)
[9]
  fungicidal activity compared to amphotericin B: most fungicidal
[10]
  fungicidal activity compared to amphotericin B: most fungicidal
[11]
  drug concentrations inhibiting conversion from yeast to mycelial form: 0.25 to 0.62 mg/L
[12]; multiple administration 1.25 mg/kg/day for 7 days, intravenous, seventh day, serum
  AUC(0-00): 72100 ng·h/mL
[12]; multiple administration 1.25 mg/kg/day for 7 days, intravenous, seventh day
  serum elimination half-life: 41.4 h
[12]; [14]
  area under the curve to infinity (AUC(0-∞)): 35520 ng·h/mL
  elimination half-lives: 22.15 h
[12]; single intravenous administration
  tissue distribution: higher uptake by the kidneys, followed by the liver, spleen and lungs
[13]
  haemolytic minimum concentration against rat erythrocytes: 18 mg/mL
